This is an account of results in patent EP0099194A2, “Novel benzamides” (BEECHAM GROUP PLC, priority 1982, dated 1984).

What all share (type): in vivo
In test [1] the test system is 5-MDMT induced symptoms. Put plainly: Anti-5HT activity: inhibition of 5-methoxy-N,N-dimethyltryptamine induced symptoms in mice. The note with it: Mouse, p.o., pretreated 1 h before 10 mg/kg ip 5-methoxy-N,N-dimethyltryptamine, dose inhibiting symptoms by 50%; for ED50: po. As for the experimental part: (§1) Mice (♂ CD^-1 Charles Rine) are pretreated with the compounds 10 animals/group under investigation and 1 h later one group is injected with 10 mg/kg ip 5-methoxy-N,N-dimethyltryptamioe (Sigma). The symptoms of fore- paw tapping movements, head jerks and splayed limbs are scored: 1, present; O, absent, giving a maximum score of 3/mouse or 30/group. Results are expressed as the percentage inhibition compared to the group treated with 5-methoxy-N,N-dimethyl tryptamine alone. The dose of compound inhibiting the symptoms by 50% is determined graphically.

Test [2] relates to 5-MDMT induced symptoms. Put plainly: Anti-5HT activity: inhibition of 5-MDMT induced symptoms in rats. The settings on record: Rat; for ED50: po. As for the experimental part: [The procedure below names another organism; the source lists this organism under the same test.] as §1
For test [3], the system named is post-synaptic Dopamine (D.A.) receptors. Put plainly: Dopamine receptor blocking activity in the CNS: inhibition of apomorphine induced climbing. The note with it: male CDl mice, p.o., apomorphine 1 mg/kg subcutaneous. The procedure:
The test is based on that described by Protais, P., Constantin, J. and Schwartz J.C. (1976), Psychopharmacology, 50, 1-6.
When mice are given a dose of 1 mg/kg apomorphine and then placed in an enclosed environment, such as an inverted wire cage, they are seen to climb around the walls. This behavioural phenomenon is thought to be a consequence of the stimulation of post-synaptic Dopamine (D.A.) receptors in the nucleus accumbens. Inhibition of apomorphine induced climbing is therefore indicative of post-synaptic D.A. receptor blockade in the accumbens.
Groups of 10 male CDl mice, weighing 25-30 g were pre-treated orally with either graded doses of the test compound or vehicle, at appropriate time intervals before the subcutaneous administration of a sub-maximal dose of apomorphine (1 mg/kg). Immediately after the apomorphine injection the mice were placed in wire 'climbing cages' and each animal was scored for climbing behavour at 10 and 20 minutes post apomorphine as follows:- • Four paws on cage floor = O • Fore paws on cage wall = 1 • Four paws on cage wall = 2 […]

Usually ED50 stands for the dose that gives a 50% effect, or the effect in half of the subjects.

Consider “4-Amino-5-chloro-2-methoxy-N-[3-β-(8-cyclopropylmethyl-8-azabicyclo (3,2,1)octyl]benzamide [Example 3]”, for which, in the test with 5-MDMT induced symptoms [1], the “Anti 5-HT Activity Inhibition of 5-MDMT induced symptoms ED50” value is “ED503 mg/kg”. Besides, the “Anti 5-HT Activity Inhibition of 5-MDMT induced symptoms” value with 5-MDMT induced symptoms [2] (at 10 mg/kg p.o.) amounted to 56% at 10.

As to `COc1cc(NC(C)=O)c(Cl)cc1C(=O)N[C@@H]1C[C@H]2CC[C@@H](C1)N2CC(C)(C)C` [Example 1, 4-Aoetylamino-5-chloro-2-methoxy-N-[3-β-(8-neopentyl-8-azabicyclo (3,2,1)octyl)]benzamide], the ED50 with 5-MDMT induced symptoms [1] turned out to be 2.4 mg/kg; with 5-MDMT induced symptoms [2], 10 mg/kg. In addition, the “ED50 inhibition of apomorphine - induced climbing” value in test [3] is recorded as 4 mg/kg. Regarding `COc1cc(N)c(Cl)cc1C(=O)NC1CC2CCC(C1)N2CC(C)(C)C` (stereo not drawn) [Example 2, 4-Amino-5-chloro-2-methoxy-N-[3-β-(8-neopentyl-8-azabicyclo (3,2,1)octyl)] benzamide], the values for the ED50 in the test on 5-MDMT induced symptoms [1] and in the test with 5-MDMT induced symptoms [2] were 0.2 mg/kg and 7.2 mg/kg, respectively. The like results for `COc1cc(N)c(Cl)cc1C(=O)NC1CC2CCCC(C1)N2CC(C)(C)C` (stereo not drawn) [Example 4, 4-Amino-5-chloro-2-mthoxy-N-[3-β-(9-neopentyl-9-azabicyclo (3,3,1)nonyl)]benzamide] were, in that order, 4.6 mg/kg and 6.2 mg/kg.

For `COc1cc(N)c(Cl)cc1C(=O)NC1CC2CCC(C1)N2CCC(C)C` (stereo not drawn) [Example 5, 4-Amino-5-chloro-2-methoxy-N-[3-β-(8-isopentyl-8-azabicyclo(3,2,1)octyl)] benzamide], in the test on 5-MDMT induced symptoms [1], the ED50 worked out at 8 mg/kg. `COc1cc(NC(C)=O)c(Cl)cc1C(=O)NC1CC2CCCC(C1)N2CC(C)(C)C` (stereo not drawn) [Example 6]: the ED50 in the test on 5-MDMT induced symptoms [2] came to 10 mg/kg.

With `COc1cc(N)c(Br)cc1C(=O)NC1CC2CCC(C1)N2CC(C)(C)C` (stereo not drawn) [Example 7, 4-Amino-5-bromo-2-methoxy-N-[3-β-(8-neopentyl-8-azabicyclo (3,2,1)octyl) ]benzamide], the ED50 in the test on 5-MDMT induced symptoms [1] came to 4 mg/kg.
